Measurements: article PMC5940828, “Analysis of β-tubulin-carbendazim interaction reveals that binding site for MBC fungicides does not include residues involved in fungicide resistance” (Scientific Reports, 2018)

Molecular target: T1, P. xanthii β-tubulin (TUB2), MBC-sensitive (E198) (Podosphaera fusca, UniProt M4QC09)
T1 construct: β-tubulin alone without α-tubulin; E198 allele
Test: intrinsic tryptophan fluorescence quenching, modified Stern-Volmer
Type: binding
Conditions: double-log; n = 1.41; excitation 295 nm; carbendazim dosed as commercial 50% water-dispersible formulation (Maypon Flow)
From the text: intrinsic tryptophan fluorescence quenching, modified Stern-Volmer on P. xanthii β-tubulin (TUB2), MBC-sensitive (E198)

T1 sequence (M4QC09 1-447): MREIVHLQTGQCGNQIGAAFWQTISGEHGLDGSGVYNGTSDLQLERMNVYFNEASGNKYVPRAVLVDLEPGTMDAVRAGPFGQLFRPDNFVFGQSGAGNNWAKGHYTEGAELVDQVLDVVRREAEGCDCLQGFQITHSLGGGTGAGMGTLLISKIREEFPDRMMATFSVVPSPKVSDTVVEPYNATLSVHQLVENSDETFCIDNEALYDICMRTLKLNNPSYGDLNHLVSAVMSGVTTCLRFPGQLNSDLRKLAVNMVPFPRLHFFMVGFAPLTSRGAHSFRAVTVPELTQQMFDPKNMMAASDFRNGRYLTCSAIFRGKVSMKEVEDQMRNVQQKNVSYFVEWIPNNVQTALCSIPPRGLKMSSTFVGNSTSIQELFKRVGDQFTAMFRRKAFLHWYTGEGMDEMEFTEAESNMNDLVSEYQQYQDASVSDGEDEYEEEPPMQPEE

COC(=O)Nc1nc2ccccc2[nH]1 [carbendazim, methyl-2-benzimidazole carbamate]
K^b: 1380 M⁻¹
